Assay results taken from patent US20190134005A1 (BioMarin Pharmaceutical Inc., priority 2016, published 2019).

molecular target: T1, human CGT (Homo sapiens, UniProt Q16880); assay: CGT Enzyme Assay (Biological Example 2, RapidFire/MS/MS method with 0.01% Tween 80 added); format: biochemical; details: enzymatic assay, CHO/CGT lysate
T1 sequence (Q16880 21-541): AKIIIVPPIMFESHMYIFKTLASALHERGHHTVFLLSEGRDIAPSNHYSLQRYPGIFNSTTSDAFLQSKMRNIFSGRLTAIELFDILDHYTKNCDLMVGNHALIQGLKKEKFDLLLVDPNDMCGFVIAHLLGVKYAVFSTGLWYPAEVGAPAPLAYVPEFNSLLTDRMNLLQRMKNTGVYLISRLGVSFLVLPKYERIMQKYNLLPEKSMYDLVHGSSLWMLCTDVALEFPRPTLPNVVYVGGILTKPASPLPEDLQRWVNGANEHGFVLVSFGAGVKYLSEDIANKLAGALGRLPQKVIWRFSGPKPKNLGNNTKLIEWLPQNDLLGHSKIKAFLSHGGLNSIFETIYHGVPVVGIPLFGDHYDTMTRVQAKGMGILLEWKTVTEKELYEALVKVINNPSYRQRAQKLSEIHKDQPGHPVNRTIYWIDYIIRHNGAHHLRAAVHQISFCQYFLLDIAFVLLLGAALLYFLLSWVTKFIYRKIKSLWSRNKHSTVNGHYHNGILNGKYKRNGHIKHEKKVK
Summary of the method: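 Lysate of CHO cells transfected with full-length human CGT, 0.5% DMSO final, 0.01% Tween 80 added; reactions stopped with methanol:acetonitrile holding internal standard. C6-NBD-dihydro-galactosylceramide and C6-NBD-dihydro-ceramide measured by RapidFire/MS/MS (ESI negative), product peak area normalized to internal standard.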

Compared with Cc1ccc(N2C(=O)N(c3ccc(C#N)cc3)[C@@H](c3cccc(OC(F)(F)F)c3)C2(C)C)cc1 [Example 50-2, (S)-4-(4,4-dimethyl-2-oxo-3-(p-tolyl)-5-(3-(trifluoromethoxy)phenyl)imidazolidin-1-yl)benzonitrile], CC1(C)[C@H](c2cccc(OC(F)(F)F)c2)N(c2ccc(Cl)cc2)C(=O)N1c1ccc(C#N)cc1 [Example 41-2, (S)-4-(3-(4-chlorophenyl)-5,5-dimethyl-2-oxo-4-(3-(trifluoromethoxy)phenyl)imidazolidin-1-yl)benzonitrile] is lower in IC50: 10 to 30 µM for the first, < 1 µM for the second.

Compared with C[C@]1(C(F)(F)F)[C@@H](c2cccc(OC(F)(F)F)c2)N(c2ccc(Cl)cc2)C(=O)N1c1ccc(Cl)cc1 [Example 25-2], CC[C@]1(C)[C@H](c2cccc(OC(F)(F)F)c2)N(c2ccc(Cl)cc2)C(=O)N1c1ccc(Cl)cc1 [Example 19-2, (4R,5S)-1,3-bis(4-chlorophenyl)-4-ethyl-4-methyl-5-(3-(trifluoromethoxy)phenyl)imidazolidin-2-one] is lower in IC50: 1 to 10 µM for the first, < 1 µM for the second. The second is the more potent here.

First: CC1(C)[C@H](c2cccc(OC(F)(F)F)c2)N(c2ccccc2)C(=O)N1c1ccccc1 [Example 26-2, (S)-4,4-dimethyl-1,3-diphenyl-5-(3-(trifluoromethoxy)phenyl)imidazolidin-2-one]
Second: Cc1ccc(N2C(=O)N(c3ccc(Cl)cc3)[C@H](c3cccc(OC(F)(F)F)c3)C2(C)C)cc1 [Example 56-1, (R)-1-(4-chlorophenyl)-4,4-dimethyl-3-(p-tolyl)-5-(3-(trifluoromethoxy)phenyl)imidazolidin-2-one]
The IC50 of the first is lower: 1 to 10 µM for the first, 10 to 30 µM for the second. The first is the more potent here.

First: C[C@@]1(C(F)(F)F)[C@H](c2cccc(C#N)c2)N(c2ccc(Cl)cc2)C(=O)N1c1ccc(Cl)cc1 [Example 27-1, 3-((4S,5S)-1,3-bis(4-chlorophenyl)-5-methyl-2-oxo-5-(trifluoromethyl)imidazolidin-4-yl)benzonitrile]
Second: CC1(C)[C@H](c2cccc(C#N)c2)N(c2ccc(Cl)cc2)C(=O)N1c1ccc(Cl)cc1 [Example 10-2, (S)-3-(1,3-bis(4-chlorophenyl)-5,5-dimethyl-2-oxoimidazolidin-4-yl)benzonitrile]
The IC50 of the first is higher: 10 to 30 µM for the first, < 1 µM for the second.

C[C@@]1(C(F)(F)F)[C@H](c2cccc(OC(F)(F)F)c2)N(c2ccc(C#N)cc2)C(=O)N1c1ccc(C#N)cc1 [Example 39-1, 4,4′-((4S,5S)-4-methyl-2-oxo-5-(3-(trifluoromethoxy)phenyl)-4-(trifluoromethyl)imidazolidine-1,3-diyl)dibenzonitrile] and C[C@]1(C(F)(F)F)[C@@H](c2cccc(OC(F)(F)F)c2)N(c2ccc(Br)cc2)C(=O)N1c1ccc(C#N)cc1 [Example 44-2, 4-((4R,5R)-3-(4-bromophenyl)-5-methyl-2-oxo-4-(3-(trifluoromethoxy)phenyl)-5-(trifluoromethyl)imidazolidin-1-yl)benzonitrile] cannot be ordered by IC50: < 1 µM for the first, < 1 µM for the second.

CC1(C)[C@H](c2cccc(OC(F)F)c2)N(c2ccc(Cl)cc2)C(=O)N1c1ccc(Cl)cc1 [Example 9-2, (S)-1,3-bis(4-chlorophenyl)-5-(3-(difluoromethoxy)phenyl)-4,4-dimethylimidazolidin-2-one] and CC1(C)C(c2cccc(C(F)(F)F)c2)N(c2ccc(Cl)cc2)C(=O)N1c1ccc(Cl)cc1 (stereo not drawn) [Example 6] cannot be ordered by IC50: < 1 µM for the first, < 1 µM for the second.

C[C@H]1[C@H](c2cccc(OC(F)(F)F)c2)N(c2ccc(Cl)cc2)C(=O)N1c1ccc(Cl)cc1 [Example 4-1, (4S,5S)-1,3-bis(4-chlorophenyl)-4-methyl-5-(3-(trifluoromethoxy)phenyl)imidazolidin-2-one] and C[C@H]1[C@H](c2cccc(C#N)c2)N(c2ccc(Cl)cc2)C(=O)N1c1ccc(Cl)cc1 [Example 5-2, 3-((4S,5S)-1,3-bis(4-chlorophenyl)-5-methyl-2-oxoimidazolidin-4-yl)benzonitrile] fall in the same range of IC50: 10 to 30 µM for the first, 10 to 30 µM for the second.

CCC[C@@]1(C)[C@H](c2cccc(C#N)c2)N(c2ccc(Cl)cc2)C(=O)N1c1ccc(Cl)cc1 [Example 33-2, 3-((4S,5S)-1,3-bis(4-chlorophenyl)-5-methyl-2-oxo-5-propylimidazolidin-4-yl)benzonitrile] and CCC[C@]1(C)[C@H](c2cccc(C#N)c2)N(c2ccc(Cl)cc2)C(=O)N1c1ccc(Cl)cc1 [Example 33-3, 3-((4S,5R)-1,3-bis(4-chlorophenyl)-5-methyl-2-oxo-5-propylimidazolidin-4-yl)benzonitrile] fall in the same range of IC50: 1 to 10 µM for the first, 1 to 10 µM for the second.

First: N#Cc1cccc([C@@H]2N(c3ccc(Cl)cc3)C(=O)N(c3ccc(Cl)cc3)C23COC3)c1 [Example 30-2, (S)-3-(5,7-bis(4-chlorophenyl)-6-oxo-2-oxa-5,7-diazaspiro[3.4]octan-8-yl)benzonitrile]
Second: N#Cc1cccc([C@H]2N(c3ccc(Cl)cc3)C(=O)N(c3ccc(Cl)cc3)C23COC3)c1 [Example 30-1, (R)-3-(5,7-bis(4-chlorophenyl)-6-oxo-2-oxa-5,7-diazaspiro[3.4]octan-8-yl)benzonitrile]
The IC50 of the first is lower: < 1 µM for the first, 10 to 30 µM for the second. The first is the more potent here.

Compared with CC[C@@]1(C)[C@@H](c2cccc(OC(F)(F)F)c2)N(c2ccc(C#N)cc2)C(=O)N1c1ccc(C#N)cc1 [Example 51-6, 4,4′-((4S,5R)-4-ethyl-4-methyl-2-oxo-5-(3-(trifluoromethoxy)phenyl)imidazolidine-1,3-diyl)dibenzonitrile], N#Cc1ccc(N2C(=O)N(c3ccc(C#N)cc3)C3(COC3)[C@@H]2c2cccc(OC(F)(F)F)c2)cc1 [Example 36-2] is lower in IC50: 10 to 30 µM for the first, < 1 µM for the second.

First: O=C1N(c2ccc(Cl)cc2)[C@@H]2CCC[C@]2(c2cccc(OC(F)(F)F)c2)N1c1ccc(Cl)cc1 [Example 12-2, (3aR,6aR)-1,3-bis(4-chlorophenyl)-3a-(3-(trifluoromethoxy)phenyl)hexahydrocyclopenta[d]imidazol-2(1H)-one]
Second: O=C1N(c2ccc(Cl)cc2)C2CCCC2(c2cccc(OC(F)(F)F)c2)N1c1ccc(Cl)cc1 (stereo not drawn) [Example 12]
The IC50 of the first is higher: 10 to 30 µM for the first, 1 to 10 µM for the second. The second is the more potent here.

Compared with Cc1ccc(N2C(=O)N(c3ccc(C#N)cc3)C3(COC3)[C@H]2c2cccc(OC(F)(F)F)c2)cc1 [Example 43-1, (R)-4-(6-oxo-7-(p-tolyl)-8-(3-(trifluoromethoxy)phenyl)-2-oxa-5,7-diazaspiro[3.4]octan-5-yl)benzonitrile], N#Cc1ccc(N2C(=O)N(c3ccc(Cl)cc3)[C@H](c3cccc(OC(F)(F)F)c3)C23COC3)cc1 [Example 46-1, (R)-4-(7-(4-chlorophenyl)-6-oxo-8-(3-(trifluoromethoxy)phenyl)-2-oxa-5,7-diazaspiro[3.4]octan-5-yl)benzonitrile] is lower in IC50: 1 to 10 µM for the first, < 1 µM for the second. The second is the more potent here.

First: CCC[C@@]1(C)[C@H](c2cccc(OC(F)(F)F)c2)N(c2ccc(Cl)cc2)C(=O)N1c1ccc(Cl)cc1 [Example 22-5, (4S,5S)-1,3-bis(4-chlorophenyl)-4-methyl-4-propyl-5-(3-(trifluoromethoxy)phenyl)imidazolidin-2-one]
Second: CCC[C@]1(C)[C@@H](c2cccc(OC(F)(F)F)c2)N(c2ccc(Cl)cc2)C(=O)N1c1ccc(Cl)cc1 [Example 22-2, (4R,5R)-1,3-bis(4-chlorophenyl)-4-methyl-4-propyl-5-(3-(trifluoromethoxy)phenyl)imidazolidin-2-one]
The IC50 of the first is higher: 10 to 30 µM for the first, < 1 µM for the second.

Cc1ccc(N2C(=O)N(c3ccc(C#N)cc3)[C@H](c3cccc(C#N)c3)C2(C)C)cc1 [Example 48-1, (R)-3-(3-(4-cyanophenyl)-5,5-dimethyl-2-oxo-1-(p-tolyl)imidazolidin-4-yl)benzonitrile] and Cc1ccc(N2C(=O)N(c3ccc(C#N)cc3)C(C)(C)[C@H]2c2cccc(C#N)c2)cc1 [Example 54-1, (R)-3-(1-(4-cyanophenyl)-5,5-dimethyl-2-oxo-3-(p-tolyl)imidazolidin-4-yl)benzonitrile] fall in the same range of IC50: 10 to 30 µM for the first, 10 to 30 µM for the second.

Compared with O=C1N(c2ccc(Cl)cc2)C2CCOC[C@@]2(c2cccc(OC(F)(F)F)c2)N1c1ccc(Cl)cc1 (stereo partly drawn) [Example 31-2, (3aS)-1,3-bis(4-chlorophenyl)-3a-(3-(trifluoromethoxy)phenyl)hexahydropyrano[3,4-d]imidazol-2(3H)-one], O=C1N(c2ccc(Cl)cc2)[C@@H]2CCC[C@]2(c2cccc(C(F)F)c2)N1c1ccc(Cl)cc1 [Example 16-2, (3aR,6aR)-1,3-bis(4-chlorophenyl)-3a-(3-(difluoromethyl)phenyl)hexahydrocyclopenta[d]imidazol-2(1H)-one] is higher in IC50: < 1 µM for the first, 10 to 30 µM for the second.

COC[C@@]1(C)[C@@H](c2cccc(OC(F)(F)F)c2)N(c2ccc(Cl)cc2)C(=O)N1c1ccc(Cl)cc1 [Example 37-1, (4R,5R)-1,3-bis(4-chlorophenyl)-4-(methoxymethyl)-4-methyl-5-(3-(trifluoromethoxy)phenyl)imidazolidin-2-one] and Cc1ccc(N2C(=O)N(c3ccc(C#N)cc3)[C@@H](c3cccc(C#N)c3)C23COC3)cc1 [Example 55-2, (S)-3-(7-(4-cyanophenyl)-6-oxo-5-(p-tolyl)-2-oxa-5,7-diazaspiro[3.4]octan-8-yl)benzonitrile] fall in the same range of IC50: 1 to 10 µM for the first, 1 to 10 µM for the second.

C[C@@H]1[C@@H](c2ccccc2)N(c2ccc(Br)cc2)C(=O)N1c1ccc(Br)cc1 [Example 2-2, (4R,5R)-1,3-bis(4-bromophenyl)-4-methyl-5-phenylimidazolidin-2-one] was tested, and the IC50 was < 1 µM.
